In patent publication US5114851A, “Light activated acyl-enzymes” (Duke University, priority 1989, dated 1992):
Where a name gives a salt, the structure may show the parent alone. One block for each compound: values may come before it.

How the values were obtained:
thrombin = experiment: Acylation (inactivation) of thrombin monitored by chromogenic assay; format: biochemical; settings: 1- to 5-fold excess of compound; thrombin 1.5 μM; pH 7.4 Tris buffer
Text: The reaction of 4-Amidinophenyl-(E)-2-hydroxy-4-diethylamino-α-methylcinnamate hydrocholoride (Compound F) with thrombin to form an acyl-thrombin (hereinafter "DEA acyl-thrombin") was monitored by chromogenic assay. See A. Turner, et al., 110 J.Am.Chem.Soc. 244 (1988); B. Blomback, Theoretical Considerations of Substrate Structures Governing Enzyme Specificity, 3 (M. Scully and V. Kakkar eds 1979)(New York: Churchill Livingston). A 1- to 5-fold excess of 4-Amidinophenyl-(E)-2-hydroxy-4-diethylamino-α-methylcinnamate with thrombin (1.5 μM) in pH 7.4 Tris buffer led to complete loss of thrombin activity in less than 1 hour.

[1] = Photolysis of model compounds and cyclization of the cis photoisomer to the coumarin (conventional spectroscopy or flash photolysis); format: physicochemical
Text: Preliminary to our studies of the enzyme system, we studied the photochemistry of the model compounds Ethyl-(E)-2-methoxy-4-diethylamino-α-methylcinnamate and Ethyl-(E)-2-hydroxy-4-diethylamino-α-methylcinnamate (hereinafter "DEA acyl", as this compound models DEA acyl-thrombin with ethyl in place of thrombin). Photolysis of Ethyl-(E)-2-methoxy-4-diethylamino-α-methylcinnamate with 366 nm light results in a rapid decrease in absorbance as the cis photoisomer is formed (In all photolyses reported here, except for the laser flash studies, the source lamp was a mercury 500 W high pressure lamp. The 366 nm emission was isolated by a Bausch and Lomb grating monochromator). At the photostationary state, the cis photoisomer is 60% of the mixture, and the ε of the cis compound is <40% of that of the trans at 360 nm. Photolysis for 5 minutes of DEA acyl in 98% ethanol/2% pH 7.4 Tris buffer gives a sharp decrease in the absorbance at 360 nm, followed by a slow increase in absorbance at 380 nm due to the dark formation of the 3-methyl-7-N,N-diethylamino-coumarin (hereafter "the coumarin"). The increase in the absorbance due to the coumarin is first order with kc =7.17·10^-4 s^-1. The presence of the cis isomer has been confirmed by NMR after photolysis as <0° C. […] Photolysis of trans DEA acyl in Tris buffer alone gives a clean conversion to coumarin with an isosbestic point observed at 370 nm. Thus, in Tris and using conventional spectroscopy, there is no evidence for the formation of cis DEA acyl in the conversion of the trans isomer to coumarin, but flash photolysis experiments (vide infra) indicate that the cis intermediate is formed, but is very reactive in this solvent.
No evidence for a cis acyl enzyme photoisomer is seen by conventional spectroscopy. However, flash photolysis (10 nsec) of DEA acyl or DEA acyl-thrombin in Tris buffer with 355 nm light from a Nd/Yad laser does give evidence for the cis photoisomer. For both DEA acyl and DEA acyl-thrombin, the flash results in an immediate decrease in absorbance at 380 nm, followed by a first order increase of absorbance as the coumarin forms from the cis intermediate.

SMILES: CCN(CC)c1ccc(/C=C(\C)C(=O)Oc2ccc(C(=N)N)cc2)c(O)c1 [Compound F, 2-Propenoic acid, 3-(2-hydroxy-4-diethylaminophenyl)-2-methyl-, 4-(aminoiminomethyl)phenyl ester,(E)-, monohydrochloride salt]
- loss of thrombin activity (thrombin): complete loss
- time to complete loss of thrombin activity (thrombin): less than 1 hour

- ε of the cis compound relative to that of the trans ([1]; at 360 nm): < 40%
SMILES: CCOC(=O)/C(C)=C/c1ccc(N(CC)CC)cc1OC [Ethyl-(E)-2-methoxy-4-diethylamino-α-methylcinnamate]

- Half-Life of cyclization to give the coumarin ([1]; 50/50 ethanol/Tris pH 7.4, 23° C.): 0.118 min
- Half-Life of cyclization to give the coumarin ([1]; 98/2 ethanol/Tris pH 7.4, 23° C.): 16.1 min
SMILES: CCOC(=O)/C(C)=C\c1ccc(N(CC)CC)cc1O [cis DEA acyl]
- First Order Rate Constant (cyclization of cis photoisomer to the coumarin) ([1]; 2/98 ethanol/Tris pH 7.4, 23° C., flash photolysis): 1.7 ± 0.5 s⁻¹
- increase of the rate of cyclization with solvent ([1]; 50/50 ethanol/Tris buffer versus 98% ethanol/2% Tris): two orders of magnitude
